The values below come from publication PMC4140852 (PLoS Pathogens, 2014).

The test deals with T1, APRc (rAPRc activation product, rAPRc105-231) (Rickettsia conorii, UniProt Q92FY8).
T1 construct: gene RC1339
The format is biochemical.

T1 sequence (Q92FY8 105-231 limits assumed): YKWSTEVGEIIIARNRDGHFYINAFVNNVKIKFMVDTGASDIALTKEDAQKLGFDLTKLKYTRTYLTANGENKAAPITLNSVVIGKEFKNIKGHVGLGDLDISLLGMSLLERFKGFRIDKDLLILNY

Consider `CC(C)(C)NC(=O)[C@@H]1CN(Cc2cccnc2)CCN1C[C@@H](O)C[C@@H](Cc1ccccc1)C(=O)N[C@H]1c2ccccc2C[C@H]1O` [indinavir], for which the “% inhibition at 0.25 mM” value is given as “incubation with indinavir resulted in a near complete inhibition of APRc”.
